Assay [1] deals with His-tagged KRAS G12D protein (Homo sapiens (Human), UniProt P01116, G12D). Description: KRAS G12D TR-FRET Assay. It is filed as binding. As to conditions: read-out: KRAS G12D Binding IC50. In outline: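 His-tagged KRAS G12D (diluted to 20 nM in pH 7.4 HEPES buffer with 10 mM MgCl2 and 10 μM GDP) was preincubated with titrated compound for 30 min at room temperature. Biotinylated KRPep-2d peptide (diluted to 20 nM) was then added for 1 h, and displacement was monitored by TR-FRET.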
His-tagged KRAS G12D protein, sequence (P01116 other isoform, or with tags, fused parts or gaps G12D): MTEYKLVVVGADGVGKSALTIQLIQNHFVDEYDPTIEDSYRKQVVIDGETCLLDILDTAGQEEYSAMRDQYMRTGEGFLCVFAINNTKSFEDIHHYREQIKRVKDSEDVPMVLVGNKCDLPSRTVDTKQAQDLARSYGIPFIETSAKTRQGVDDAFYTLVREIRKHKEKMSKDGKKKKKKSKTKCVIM
(In general: Time-resolved FRET reads energy transfer from a long-lived donor to a nearby acceptor.)

The target of assay [2] is GDP-bound KRAS protein (aa 1-169), containing both G12D and C118A amino acid substitutions (Homo sapiens (Human), UniProt P01116, C118A/G12D). Description: KRAS G12D Coupled Nucleotide Exchange Assay. It is filed as biochemical. The conditions noted are these: read-out: KRAS G12D Coupled Exchange IC50.
GDP-bound KRAS protein (aa 1-169), containing both G12D and C118A amino acid substitutions, sequence (P01116 other isoform, or with tags, fused parts or gaps G12D/C118A): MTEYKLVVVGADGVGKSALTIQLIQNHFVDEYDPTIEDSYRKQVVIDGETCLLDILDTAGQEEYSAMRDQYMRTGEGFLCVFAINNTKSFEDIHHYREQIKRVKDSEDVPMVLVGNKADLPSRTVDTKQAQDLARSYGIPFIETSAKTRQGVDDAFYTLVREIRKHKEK
Assay [3] has as its system Phosphorylation of ERK1/2 in AsPC-1 cells. Description: Phospho-ERK1/2 MSD Assay. The class given is cell-based, human. The conditions noted are these: read-out: 2 h p-ERK (AsPC-1 cells), IC50. In outline: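 Read-out: MSD electrochemiluminescent detection of phosphorylated ERK1/2 in whole-cell lysates, fitted to a 4-parameter logistic curve for IC50. Prior to lysis, AsPC-1 cells (25,000 per well) received a 2 h compound dose-response at 37 °C.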

In assay [4] the test system is AsPC-1 cells. Description: AsPC-1 CTG Assay (CellTiter-Glo cell viability). The class given is cell-based, human. The conditions noted are these: AsPC-1, 72 h, first value of the cell, read-out: G12D/C/V Cell Proliferation CTG (72 h) AsPC-1. In outline: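 Human pancreatic AsPC-1 or colon SW620 cells in RPMI 1640 with 10% FBS, seeded overnight, then exposed to serially diluted compound for 72 h at 37 °C. CellTiter-Glo luminescence normalized to DMSO control; IC50 from a 4-parameter logistic model.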
For orientation: In ATP-based viability assays light output follows the ATP content of the culture.

In assay [5] the test system is MIA PaCa-2 cells. Kind of assay: MIA PaCa-2 CTG Assay (CellTiter-Glo cell viability). The conditions noted are these: Mia PaCa-2, 72 h, second value of the cell, read-out: G12D/C/V Cell Proliferation CTG (72 h) Mia PaCa-2. It is filed as cell-based, human. How it is done: MIA PaCa-2 CTG Assay Protocol
MIA PaCa-2 (human pancreatic carcinoma; ATCC CRL-1420) cells were cultured in RPMI 1640 medium containing 10% fetal bovine serum and 1× penicillin/streptomycin/L-glutamine. Cells were seeded in 384-well plates at a density of 1.67E+04 cells/mL and incubated at 37° C., 5% CO2, overnight. Serially-diluted compound or DMSO was added to the cells, and plates were incubated at 37° C., 5% CO2 for 72 h. Cell viability was measured using a CellTiter-Glo® Luminescent Cell Viability Assay kit (Promega) according to the manufacturer's protocol. The luminescence signal of treated samples was normalized to DMSO control, and data were analyzed using a 4-parameter logistic model to calculate IC50 values.

Like-named read-outs stand apart in the source and are kept apart here.

Consider `C[C@@]12CCCN(C1)c1nc(OC[C@@]34CCCN3C[C@H](F)C4)nc3c(F)c(ncc13)-c1cc(O)cc3ccc(F)c(c13)CCCCC(=O)N2` [Example 47, (15R)-23,32-Difluoro-8-(((2R,7aS)-2-fluorotetrahydro-1H-pyrrolo[1,2-a]pyrrol-7a(5H)-yl)methoxy)-28-hydroxy-15-methyl-3,7,9,11,16-pentaazahexacyclo[20.7.1.1˜2,6˜.1˜11,15˜.0˜5,10˜.0˜26,30˜]dotriaconta-1(30),2(32),3,5,7,9,22,24,26,28-decaen-17-one], for which the IC50 in assay [1] was determined as 4 nM; in assay [2] it was 2 nM; in assay [3] (Homo sapiens, ASPC1, 2 h), 36 nM; in assay [4] (Homo sapiens, ASPC1, 72 h) it was 350 nM; in assay [5] (Homo sapiens), 200 nM.

As to `O=C1CCCc2c(F)ccc3cccc(c23)-c2ncc3c(nc(OC[C@@]45CCCN4C[C@H](F)C5)nc3c2F)N2CC[C@H]3CCN1[C@H]3C2` [Example 72, (27S,31R)-18,33-difluoro-4-(((2R,7aS)-2-fluorotetrahydro-1H-pyrrolo[1,2-a]pyrrol-7a(5H)-yl)methoxy)-1,3,5,9,24-pentaazaheptacyclo[22.5.2.1˜6,10˜.1˜11,15˜.0˜2,7˜.0˜19,32˜.0˜27,31˜]tritriaconta-2,4,6,8,10(33),11,13,15(32),16,18-decaen-23-one], the IC50 in assay [1] turned out to be 3 nM; in assay [2] it was 1 nM; in assay [3] (Homo sapiens, ASPC1, 2 h), 16 nM; in assay [4] (Homo sapiens, ASPC1, 72 h), 230 nM; in assay [5] (Homo sapiens) it was 200 nM.

Regarding `O=C1CCCCc2c(Cl)cc3[nH]ncc3c2-c2ncc3c(nc(OC[C@@]45CCCN4C[C@H](F)C5)nc3c2F)N2CCCC[C@H](C2)O1` [Example 82, (26R)-18-chloro-32-fluoro-4-(((2R,7aS)-2-fluorotetrahydro-1H-pyrrolo[1,2-a]pyrrol-7a(5H)-yl)methoxy)-25-oxa-1,3,5,9,14,15-hexaazahexacyclo[24.4.1.1~6,10~.0~2,7~.0~11,19~.0~12,16~]dotriaconta-2,4,6,8,10(32),11,13,16,18-nonaen-24-one], the IC50 in assay [1] amounted to 2 nM; in assay [2], 1 nM; in assay [3] (Homo sapiens, ASPC1, 2 h), 2 nM; in assay [4] (Homo sapiens, ASPC1, 72 h), 40 nM; in assay [5] (Homo sapiens) it was 10 nM.

Turning to `Cc1cc2[nH]ncc2c2c1CCCCC(=O)O[C@@H]1COCCN(C1)c1nc(OC[C@@]34CCCN3C[C@H](F)C4)nc3c(F)c-2ncc13` [Example 83, (26S)-32-fluoro-4-(((2R,7aS)-2-fluorotetrahydro-1H-pyrrolo[1,2-a]pyrrol-7a(5H)-yl)methoxy)-18-methyl-25,28-dioxa-1,3,5,9,14,15-hexaazahexacyclo[24.4.1.1~6,10~.0~2,7~.0~11,19~.0~12,16~]dotriaconta-2,4,6,8,10(32),11,13,16,18-nonaen-24-one], the IC50 in assay [1] is 4 nM; in assay [2], 3 nM; in assay [3] (Homo sapiens, ASPC1, 2 h), 15 nM; in assay [4] (Homo sapiens, ASPC1, 72 h), 160 nM; in assay [5] (Homo sapiens), 40 nM.

As for `O=C1CCCCc2c(Cl)cc3[nH]ncc3c2-c2ncc3c(nc(OC[C@@]45CCCN4C[C@H](F)C5)nc3c2F)N2CCOC[C@H](C2)O1` [Example 84, (26S)-18-chloro-32-fluoro-4-(((2R,7aS)-2-fluorotetrahydro-1H-pyrrolo[1,2-a]pyrrol-7a(5H)-yl)methoxy)-25,28-dioxa-1,3,5,9,14,15-hexaazahexacyclo[24.4.1.1~6,10~.0~2,7~.0~11,19~.0~12,16~]dotriaconta-2,4,6,8,10(32),11,13,16,18-nonaen-24-one], the IC50 in assay [1] was found to be 2 nM; in assay [2], 1 nM; in assay [3] (Homo sapiens, ASPC1, 2 h), 4 nM; in assay [4] (Homo sapiens, ASPC1, 72 h), 50 nM; in assay [5] (Homo sapiens), 20 nM.

Regarding `CN1C[C@H](F)C[C@H]1COc1nc2c3cnc(c(F)c3n1)-c1c(c(Cl)cc3[nH]ncc13)CCCCC(=O)O[C@@H]1CCCCN2C1` [Example 85, (26R)-18-chloro-32-fluoro-4-(((2S,4R)-4-fluoro-1-methyl-2-pyrrolidinyl)methoxy)-25-oxa-1,3,5,9,14,15-hexaazahexacyclo[24.4.1.1~6,10~.0~2,7~.0~11,19~.0~12,16~]dotriaconta-2,4,6,8,10(32),11,13,16,18-nonaen-24-one], the IC50 was 5 nM in assay [1]; 4 nM in assay [2]; 58 nM in assay [3] (Homo sapiens, ASPC1, 2 h); 480 nM in assay [4] (Homo sapiens, ASPC1, 72 h); 400 nM in assay [5] (Homo sapiens).

As to `Cc1cc2[nH]ncc2c2c1CCCOC(=O)O[C@@H]1CCCCN(C1)c1nc(OC[C@@]34CCCN3C[C@H](F)C4)nc3c(F)c-2ncc13` [Example 98, (26R)-32-fluoro-4-(((2R,7aS)-2-fluorotetrahydro-1H-pyrrolo[1,2-a]pyrrol-7a(5H)-yl)methoxy)-18-methyl-23,25-dioxa-1,3,5,9,14,15-hexaazahexacyclo[24.4.1.1~6,10~.0~2,7~.0~11,19~.0~12,16~]dotriaconta-2,4,6,8,10(32),11,13,16,18-nonaen-24-one], the IC50 in assay [1] turned out to be 4 nM; in assay [2], 2 nM; in assay [3] (Homo sapiens, ASPC1, 2 h) it was 17 nM; in assay [4] (Homo sapiens, ASPC1, 72 h), 140 nM; in assay [5] (Homo sapiens), 50 nM.

With `Cc1cc2[nH]ncc2c2c1CCCC(=O)OCC1CCCN(C1)c1nc(OC[C@@]34CCCN3C[C@H](F)C4)nc3c(F)c-2ncc13` (some centres unmarked) [Example 104], the IC50 amounted to 7 nM in assay [1]; 2 nM in assay [2]; 38 nM in assay [3] (Homo sapiens, ASPC1, 2 h); 860 nM in assay [4] (Homo sapiens, ASPC1, 72 h); 300 nM in assay [5] (Homo sapiens).

Regarding `Cc1cc2[nH]ncc2c2c1CCOC(=O)OC[C@@H]1CCCN(C1)c1nc(OC[C@@]34CCCN3C[C@H](F)C4)nc3c(F)c-2ncc13` [Example 126, (17R)-30-Fluoro-24-(((2R,7aS)-2-fluorotetrahydro-1H-pyrrolo[1,2-a]pyrrol-7a(5H)-yl)methoxy)-9-methyl-13,15-dioxa-5,6,21,23,25,29-hexaazahexacyclo[24.3.1.1˜17,21˜.0˜2,10˜.0˜3,7˜.0˜22,27˜]hentriaconta-1(30),2,4,7,9,22,24,26,28-nonaen-14-one bis(2,2,2-trifluoroacetate)], the IC50 in assay [1] was found to be 2 nM; in assay [2] it was 1 nM; in assay [3] (Homo sapiens, ASPC1, 2 h) it was 10 nM; in assay [4] (Homo sapiens, ASPC1, 72 h), 160 nM; in assay [5] (Homo sapiens), 60 nM.

In the case of `O=C1CC[C@@H]2C[C@@H]2c2c(Cl)cc3[nH]ncc3c2-c2ncc3c(nc(OC[C@@]45CCCN4C[C@H](F)C5)nc3c2F)N2CCC[C@H](C2)O1` [Example 127], the IC50 in assay [1] was determined as 4 nM; in assay [2] it was 3 nM; in assay [3] (2 h) it was 13 nM; in assay [4] it was 230 nM; in assay [5], 120 nM.

For `Cc1cc2[nH]ncc2c2c1C/C=C\COC[C@@H]1CCCN(C1)c1nc(OC[C@@]34CCCN3C[C@H](F)C4)nc3c(F)c-2ncc13` [Example 131], the IC50 was 6 nM in assay [1]; 3 nM in assay [2]; 41 nM in assay [3] (Homo sapiens, ASPC1, 2 h); 370 nM in assay [4] (Homo sapiens, ASPC1, 72 h); 230 nM in assay [5] (Homo sapiens).

Consider `Fc1c2ncc3c(nc(OC[C@@]45CCCN4C[C@H](F)C5)nc13)N1CCCO[C@@H](COCCCCc3c(Cl)cc4[nH]ncc4c3-2)C1` [Example 140], for which the IC50 was 5 nM in assay [1]; 4 nM in assay [2]; 83 nM in assay [3] (Homo sapiens, ASPC1, 2 h); 650 nM in assay [4] (Homo sapiens, ASPC1, 72 h); 100 nM in assay [5] (Homo sapiens).

For the compound `Cc1cc2[nH]ncc2c2c1CCCn1ccc(n1)[C@H]1CCCN(C1)c1nc(OC[C@@]34CCCN3C[C@H](F)C4)nc3c(F)c-2ncc13` [Example 154, (18S)-31-fluoro-25-(((2R,7aS)-2-fluorotetrahydro-1H-pyrrolo[1,2-a]pyrrol-7a(5H)-yl)methoxy)-9-methyl-5,6,14,22,24,26,30,33-octaazaheptacyclo[25.3.1.1~14,17~.1~18,22~.0~2,10~.0~3,7~.0~23,28~]tritriaconta-1(31),2,4,7,9,15,17(33),23,25,27,29-undecaene], the IC50 in assay [1] was found to be 2 nM; in assay [2], 4 nM; in assay [3] (Homo sapiens, ASPC1, 2 h), 252 nM; in assay [4] (Homo sapiens, ASPC1, 72 h) it was 3360 nM; in assay [5] (Homo sapiens) it was 230 nM.

Source of the values: patent US20240294551A1 (AMGEN INC., priority 2022, published 2024).
